Like-named read-outs stand apart in the source and are kept apart here.
Experiments:
Format in all cases: cell-based
HIV-1/LAI = assay: In vitro antiviral activity in acutely infected MT4 cells, wild type; details: read-out: median EC50
Experimental: (§1) Determination of the antiviral activity of a compound was done as described in Pauwels R. et al. (J Virol Methods 1988; 20(4):309-21). Various concentrations of the test compounds were brought into each well of a flat-bottom microtiter plate. Subsequently, HIV and MT4 cells were added to a final concentration of 200-250 50% cell culture infectious doses (CCID50)/well and 30,000 cells/well, respectively. After 5 days of incubation (37° C., 5% CO2), the cytopathic effect of the replicating virus was determined by the tetrazolium colorimetric MTT method. The dose protecting 50% of the cells from virus cytopathic effect was defined as the EC50, while the dose achieving 90% protection was defined as the EC90.
(§2) MT4-LTR-EGFP cells were infected at a multiplicity of infection (MOI) of 0.01 to 0.001 CCID50/cell in the presence of inhibitor. The starting concentration of the inhibitor was two to tee times the EC50, a suboptimal concentration. The cultures were sub-cultivated and scored microscopically on virus-induced fluorescence and cytopathicity every 3-4 days. The cultures were sub-cultivated in the presence of the same compound concentration until signs of virus replication were observed. The escaping virus was further cultivated in the presence of the same inhibitor concentration in order to enrich the population in resistant variants. If full virus breakthrough was observed the supernatant was collected and stored (new virus strain). Afterwards, the same virus was challenged with a higher compound concentration in order to select variants able to grow in the presence of as high as possible inhibitor concentrations. From the new viruses, a virus stock was grown in the absence of inhibitor.
(§3) In vitro drug selection experiments starting from wild-type HIV-1 under pressure of compound 1, compound 2, and Nelfinavir (NFV) have been performed. Tables 1, 2, 3, 4, and 5 show the genotypic and phenotypic characterization of the selected strains.

[1] = system: HIV-1 strain selected with Comp 1 (20 nM, 94 days), protease R41G/R V82V/I; assay: In vitro antiviral activity in acutely infected MT4 cells, selected strain; details: for EC50: Human immunodeficiency virus 1, Table 4, strain R41G/R V82V/I (Comp 1 20 nM, 94 days), read-out: median EC50; for median FC (fold change in EC50 as compared to wild type): Table 4, strain R41G/R V82V/I (Comp 1 20 nM, 94 days)
Experimental: as §1, §2, §3

[2] = system: HIV-1 strain selected with Comp 1 (40 nM, 161 days), protease R41G V82I; assay: as above; details: for EC50: Human immunodeficiency virus 1, Table 4, strain R41G V82I (Comp 1 40 nM, 161 days), read-out: median EC50; for median FC (fold change in EC50 as compared to wild type): Table 4, strain R41G V82I (Comp 1 40 nM, 161 days)
Experimental: as §1, §2, §3

[3] = system: HIV-1 strain selected with Comp 1 (40 nM, 175 days), protease R41G V82I; assay: as above; details: for EC50: Human immunodeficiency virus 1, Table 4, strain R41G V82I (Comp 1 40 nM, 175 days), read-out: median EC50; for median FC (fold change in EC50 as compared to wild type): Table 4, strain R41G V82I (Comp 1 40 nM, 175 days)
Experimental: as §1, §2, §3

[4] = system: HIV-1/LAI strain selected with Comp 1 (100 nM, 139 days), protease S37S/N R41R/K K70E; assay: as above; details: for EC50: Human immunodeficiency virus 1, Table 2, strain S37S/N R41R/K K70E (Comp 1 100 nM, 139 days), read-out: median EC50; for median FC (fold change in EC50 as compared to wild type): Table 2, strain S37S/N R41R/K K70E (Comp 1 100 nM, 139 days)
Experimental: as §1, §2, §3

[5] = system: HIV-1/LAI strain selected with Comp 1 (200 nM, 328 days), protease S37N R41S K70E; assay: as above; details: for EC50: Human immunodeficiency virus 1, Table 2, strain S37N R41S K70E (Comp 1 200 nM, 328 days), read-out: median EC50; for median FC (fold change in EC50 as compared to wild type): Table 2, strain S37N R41S K70E (Comp 1 200 nM, 328 days)
Experimental: as §1, §2, §3

[6] = system: HIV-1/LAI strain selected with Comp 1 (30 nM, 70 days), protease K70E; assay: as above; details: for EC50: Human immunodeficiency virus 1, Table 2, strain K70E (Comp 1 30 nM, 70 days), read-out: median EC50; for median FC (fold change in EC50 as compared to wild type): Table 2, strain K70E (Comp 1 30 nM, 70 days)
Experimental: as §1, §2, §3

[7] = system: HIV-1/LAI strain selected with Compound 1 (100 nM, 188 days), protease R41T K70E; assay: as above; details: for EC50: Human immunodeficiency virus 1, Table 1, strain R41T K70E (Compound 1 100 nM, 188 days), read-out: median EC50; for median FC (fold change in EC50 as compared to wild type): Table 1, strain R41T K70E (Compound 1 100 nM, 188 days)
Experimental: as §1, §2, §3

[8] = system: HIV-1/LAI strain selected with Compound 1 (30 nM, 45 days), protease R41T; assay: as above; details: for EC50: Human immunodeficiency virus 1, Table 1, strain R41T (Compound 1 30 nM, 45 days), read-out: median EC50; for median FC (fold change in EC50 as compared to wild type): Table 1, strain R41T (Compound 1 30 nM, 45 days)
Experimental: as §1, §2, §3

[9] = system: HIV-1/LAI strain selected with Compound 2 (100 nM), protease R41I; Table 3; assay: as above; details: Human immunodeficiency virus 1, R41I strain selected with Compound 2 100 nM (head lists 116, 200, 264 days; assignment unclear), read-out: median EC50
Experimental: as §1, §2, §3

[10] = system: HIV-1/LAI strain selected with NFV (1000 nM, 35 days), protease D30N M46I; assay: as above; details: for EC50: Human immunodeficiency virus 1, Table 5, strain D30N M46I (NFV 1000 nM, 35 days), read-out: median EC50; for median FC (fold change in EC50 as compared to wild type): Table 5, strain D30N M46I (NFV 1000 nM, 35 days)
Experimental: as §1, §2, §3

[11] = system: HIV-1/LAI strain selected with NFV (9000 nM, 11l days), protease L10F D30N R41R/K K45I/K M46I V77I I84V/I I85V/I N88D; assay: as above; details: for EC50: Human immunodeficiency virus 1, Table 5, strain L10F D30N R41R/K K45I/K M46I V77I I84V/I I85V/I N88D (NFV 9000 nM, 11l days), read-out: median EC50; for median FC (fold change in EC50 as compared to wild type): Table 5, strain L10F D30N R41R/K K45I/K M46I V77I I84V/I I85V/I N88D (NFV 9000 nM, 11l days)
Experimental: as §1, §2, §3

[12] = system: HIV-1/LAI strain selected with NFV (9000 nM, 140 days), protease L10F D30N R41R/K K45I/K M46I V77I I84V N88D; assay: as above; details: for EC50: Human immunodeficiency virus 1, Table 5, strain L10F D30N R41R/K K45I/K M46I V77I I84V N88D (NFV 9000 nM, 140 days), read-out: median EC50; for median FC (fold change in EC50 as compared to wild type): Table 5, strain L10F D30N R41R/K K45I/K M46I V77I I84V N88D (NFV 9000 nM, 140 days)
Experimental: as §1, §2, §3

[13] = system: HIV-1 starting strain of Table 4 (no compound, no mutations); assay: In vitro antiviral activity in acutely infected MT4 cells, starting strain; details: for EC50: Human immunodeficiency virus 1, starting strain HIV-1, no compound, read-out: median EC50; for median FC (fold change in EC50 as compared to wild type): starting strain HIV-1, no compound
Experimental: as §1, §2, §3

[14] = Human immunodeficiency virus 1, MT4, Table 1, wild-type HIV/LAI
[15] = Human immunodeficiency virus 1, MT4, Table 2, wild-type HIV-1/LAI
[16] = Human immunodeficiency virus 1, MT4, Table 3, wild-type HIV-1/LAI
[17] = Human immunodeficiency virus 1, MT4, Table 4, wild-type HIV-1/LAI
[18] = Human immunodeficiency virus 1, MT4, Table 5, wild-type HIV-1/LAI

SMILES | EC50 (HIV-1/LAI; [14]) [nM] | EC50 (HIV-1/LAI; [15]) [nM] | EC50 (HIV-1/LAI; [16]) [nM] | EC50 (HIV-1/LAI; [17]) [nM] | EC50 (HIV-1/LAI; [18]) [nM] | EC50 [1] [nM] | median FC (fold change in EC50 as compared to wild type) [1] | EC50 [2] [nM] | median FC (fold change in EC50 as compared to wild type) [2] | EC50 [3] [nM] | median FC (fold change in EC50 as compared to wild type) [3] | EC50 [4] [nM] | median FC (fold change in EC50 as compared to wild type) [4] | EC50 [5] [nM] | median FC (fold change in EC50 as compared to wild type) [5] | EC50 [6] [nM] | median FC (fold change in EC50 as compared to wild type) [6] | EC50 [7] [nM] | median FC (fold change in EC50 as compared to wild type) [7] | EC50 [8] [nM] | other results
CC(C)(C)NC(=O)[C@@H]1CN(Cc2cccnc2)CCN1C[C@@H](O)C[C@@H](Cc1ccccc1)C(=O)N[C@H]1c2ccccc2C[C@H]1O [Indinavir] | 28 | 12 | 12 | 12 | 12 | 3.1 | 0 | 2.1 | 0 | 3.9 | 0 | 6.3 | 1 | 5.5 | 0.5 | 18 | 2 | 140 | 5 | 33 | median FC (fold change in EC50 as compared to wild type) [8]: 1; EC50 [9]: 19 nM; EC50 [10]: 7.9 nM; median FC (fold change in EC50 as compared to wild type) [10]: 1; EC50 [11]: 100 nM; median FC (fold change in EC50 as compared to wild type) [11]: 8; EC50 [12]: 28 nM; median FC (fold change in EC50 as compared to wild type) [12]: 2; EC50 [13]: 2.4 nM; median FC (fold change in EC50 as compared to wild type) [13]: 0
CC(C)(C)NC(=O)[C@@H]1C[C@@H]2CCCC[C@@H]2CN1C[C@@H](O)[C@H](Cc1ccccc1)NC(=O)[C@H](CC(N)=O)NC(=O)c1ccc2ccccc2n1 [Saquinavir] | 7.8 | 5.6 | 5.6 | 5.6 | 5.6 | 0.9 | 0 | 1 | 0 | 0.8 | 0 | 0.7 | 0.1 | 4 | 1 | 6 | 1 | 150 | 20 | 30 | median FC (fold change in EC50 as compared to wild type) [8]: 4; EC50 [10]: 1.8 nM; median FC (fold change in EC50 as compared to wild type) [10]: 0; EC50 [11]: 15 nM; median FC (fold change in EC50 as compared to wild type) [11]: 3; EC50 [12]: 34 nM; median FC (fold change in EC50 as compared to wild type) [12]: 6; EC50 [13]: 8.9 nM; median FC (fold change in EC50 as compared to wild type) [13]: 2
Cc1c(O)cccc1C(=O)N[C@@H](CSc1ccccc1)[C@H](O)CN1C[C@H]2CCCC[C@H]2C[C@H]1C(=O)NC(C)(C)C [Nelfinavir] | 30 | 38 | 38 | 38 | 38 | 5.7 | 0 | 11 | 0 | 16 | 0 | 9.7 | 0.3 | 1.9 | 0.1 | 39 | 1 | 37 | 1 | 32 | median FC (fold change in EC50 as compared to wild type) [8]: 1; EC50 [9]: 16 nM; EC50 [10]: 330 nM; median FC (fold change in EC50 as compared to wild type) [10]: 9; EC50 [11]: 7200 nM; median FC (fold change in EC50 as compared to wild type) [11]: 200; EC50 [12]: 6800 nM; median FC (fold change in EC50 as compared to wild type) [12]: 200; EC50 [13]: 31 nM; median FC (fold change in EC50 as compared to wild type) [13]: 1
CC(C)CN(C[C@@H](O)[C@H](Cc1ccccc1)NC(=O)O[C@H]1CCOC1)S(=O)(=O)c1ccc(N)cc1 [Amprenavir] | 36 | 20 | 20 | 20 | 20 | 7.3 | 0 | 6.6 | 0 | 9.4 | 0 | 24 | 1 | 15 | 1 | 56 | 3 | 39 | 1 | 38 | median FC (fold change in EC50 as compared to wild type) [8]: 1; EC50 [9]: 14 nM; EC50 [10]: 28 nM; median FC (fold change in EC50 as compared to wild type) [10]: 1; EC50 [11]: 95 nM; median FC (fold change in EC50 as compared to wild type) [11]: 5; EC50 [12]: 190 nM; median FC (fold change in EC50 as compared to wild type) [12]: 10; EC50 [13]: 26 nM; median FC (fold change in EC50 as compared to wild type) [13]: 1

From patent US8592161B2, “Mutational profiles in HIV-1 protease correlated with phenotypic drug resistance” (Janssen R&D Ireland, priority 2002, dated 2013)
